Laboratory results from patent US20040214767A1, “Regulation of follicular development and ovulation by cytoskeletal genes and gene products” (priority 2002, published 2004).

Test system: rat primary granulosa cells
Test: Effects of CHX and alpha-amanitin on FSH/forskolin-induced expression of cytoskeletal genes in granulosa cells
Assay type: cell-based
Conditions: for β-tubulin mRNA: with or without FSH
Description: FIG. 8. Effects of CHX and alpha-amanitin treatment on the FSH/forskolin-induced expression of the cytoskeletal genes. Granulosa cells were isolated from the ovaries of 170 estradiol primed 24 day old immature rats. They were cultured in the medium containing FSH (30 ng/ml) or forskolin (10 microM, FSK) in the presence or absence of CHX (10 μg/ml) for 6 hours (A) or 24 hours (B). In addition, the 24 hours cells were also cultured, likewise, in the presence of alpha-amanitin (30 microg/ml, AMA). Total RNA was isolated and analyzed for mRNAs of TM4, Khc, beta-tubulin and inhibin alpha as described in the description of FIG. 7. Values are the meanfold increase over control (no treatment)±SE. Values were pooled from two separate experiments.
As a step to determine the mechanisms of the FSH-responsive mRNA expression, the granulosa cells were treated with FSH in the presence or absence of a translation inhibitor, CHX, and a transcription inhibitor, alpha amanitin.
Eighteen to twenty-one day old Sprague-Dawley female pups with nursing mothers were purchased from Harlan Breeding Company (Indianapolis, Ind.) and housed in a photoperiod of 14 h light/10 h darkness with light on at 0500 h. For in situ hybridization, rats were injected subcuteneoulsy with 15 IU PMSG (Sigma) in 0.1 ml PBS on 22-23 days of age. Depending on the experiments, PMSG 48 hours-primed rats were injected i.p. with 10 IU hCG. Ovaries were frozen on dry ice immediately after excision and stored at −80 C. […] Ovaries were collected in ice-cold serum-free 4F medium consisting of 15 mM HEPES (pH 7.4), 50% DMEM and 50% Ham's F12 with bovine transferrin (5 micro g/ml), human insulin (2 mg/ml), hydrocortisone (40 ng/ml) and antibiotics, and processed as previously described. Cells were washed three times, resuspended in 4F, plated on serum-coated. Six-well plate (1×10^6 cells in 2 ml per well), and incubated at 37 C for 16 hours. FSH (30 ng/ml) or forskolin (10 micro M) was added to the cell cultures. For the inhibition of protein synthesis or transcription, 10 micro g/ml of cycloheximide (CHX) or alpha-amanitin (30 microg/ml) was, respectively, added 1 h before hormone treatment.
RT-PCR was performed essentially as previously described (Ko, et al., Endocrinology 140:5185-5194. Total RNA (1-2 micro g) was reverse-transcribed at 37 C in a 20 micro L reaction volume using random hexamer (500 ng) and MMLV reverse transcriptase (10 units) (New England BioLabs, Boston, Mass.). Complementary DNA (cDNA) samples (2 micro L) were added to a total 25 micro L reaction mix containing the primers (200 ng each), 0.4 mM dNTP mixture, and Taq DNA polymerase (2.5 U) in 1×PCR buffer (10 mM Tris, pH 8.3, 50 mM KCl, 1.5 mM MgCl2, 0.01% gelatin). All PCR amplifications were carried out for 20, 25 or 30 cycles on a MJ Research Minicycler. PCR products were separated by 2% agarose gel electrophoresis, stained with SYBR® Green I (Molecular Probes), and visualized by phosphoimaging technology (FLA-2000; Fuji, Stamford, Conn.). The following primers were used in the present studies: TM4 (5′-gag aac tcc tga ctg aac tgg acg-3′(SEQ ID NO. 1) and 5′-cca tat tcc ctg ctg agc gta g-3′(SEQ ID NO. 2), 282 bp), Khc (5′-aac tga atc gcc tcc aag cag-3′ and 5′-cga act ggc gag aac tgg atg-3′, 195 bp), β-tubulin (5′-cct gct cat cag caa gat tcg-3′(SEQ ID NO. 3) and 5′-gtg gtg agc tta agg gta cgg, (SEQ ID NOI 4) 210 bp), and inhibin alpha subunit (5′-gct ttc cct ctg ttg acc cac-3′ (SEQ ID NO. 5) and 5′-aga tgt tga ggg cag ctc gat-3′, (SEQ ID NO. 6) 255 bp). L-19 (5′-ctg aag gtc aaa ggg aat gtg-3 (SEQ ID NO. 7) and 5′-gga cag agt ctt gat gat ctc, (SEQ ID NO. 8) 194 bp) oligo nucleotide primers were used to amplify ribosomal protein L-19 as an internal control.

[1] = CHX, cells treated with FSH for 24 hours
[2] = CHX, cells treated with FSH for six hours
[3] = cells treated with FSH for 24 hours
[4] = alpha-amanitin 30 microg/ml, 24 hours

SMILES | β-tubulin mRNA level (24 hours FSH in the presence of CHX) | β-tubulin mRNA (CHX 10 μg/ml, 6 hours) | TM4 mRNA level [1] | inhibin alpha mRNA level [1] | Khc mRNA level [2] | TM4 mRNA level [2] | inhibin alpha mRNA level [2] | effect on Khc mRNA level [3] | FSH-induced mRNA expression of all of the cytoskeletal and inhibin alpha genes [4] | β-tubulin mRNA [4]
C[C@@H]1C[C@@H]([C@H](O)CC2CC(=O)NC(=O)C2)C(=O)[C@@H](C)C1 [CHX, cycloheximide] | decreased to apparent basal level | could not be detected | slightly enhancing | substantially suppressing | lowered the Khc mRNA level, though not completely | increased | increased | marginal | – | –
CC[C@H](C)[C@@H]1NC(=O)CNC(=O)[C@@H]2Cc3c([nH]c4cc(O)ccc34)[S+]([O-])C[C@@H](NC(=O)CNC1=O)C(=O)N[C@@H](CC(N)=O)C(=O)N1C[C@H](O)C[C@H]1C(=O)N[C@@H]([C@@H](C)[C@@H](O)CO)C(=O)N2 (stereo partly drawn) [alpha amanitin, alpha-amanitin] | – | – | – | – | – | – | – | marginal | blocked | blocked both the maintenance and FSH dependent increase
